IC50 data for 15 compounds are collected here from patent publication US8420657B2 (Novartis AG, priority 2008, dated 2013).

The term IC50 denotes the point on the concentration scale where inhibition reaches its midpoint. The low end stands for inhibition by little substance, the high end for a need for much substance.

The first assay has as its system JAK1/JAK2-dependent nuclear translocation of STAT1-GFP in HT1080 fibrosarcoma cells. Briefly: STAT1 nuclear translocation assay (Cellomics), IFN-γ stimulated HT1080 STAT1-GFP cells. The format is cell-based. The following applies: Homo sapiens, HT-1080, STAT1 translocation pathway. Summed up:
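IC50 derived from percent nuclear STAT1-GFP translocation, computed from nuclear minus cytoplasmic GFP intensity against untreated baseline and DMSO-stimulated control. Stable HT1080 STAT1-GFP cells received compound (0.003–10 μM, 0.1% DMSO) 30 min ahead of a 2 h 100 ng/ml IFN-γ stimulus, then fixation and Hoechst nuclear masking.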
With `Cc1cc(Nc2ncc3ccn(-c4ccc(C(=O)N5CCOCC5)c(F)c4)c3n2)nn1C` [Example 311, {4-[2-(1,5-Dimethyl-1H-pyrazol-3-ylamino)-pyrrolo[2,3-d]pyrimidin-7-yl]-2-fluoro-phenyl}-morpholin-4-yl-methanone], the midpoint of inhibition, the IC50, lay at 1400 nM.

As to `CN1CCN(C(=O)c2cccc(Nc3ncc4ccn(-c5cc(F)c(CN6CCOCC6)c(F)c5)c4n3)c2)CC1` [Example 203, {3-[7-(3,5-Difluoro-4-morpholin-4-ylmethyl-phenyl)-7H-pyrrolo[2,3-d]pyrimidin-2-ylamino]-phenyl}-(4-methyl-piperazin-1-yl)-methanone], half-maximal inhibition (IC50) was put at 412 nM.

In turn, `Cc1ccc(Nc2ncc3ccn(-c4cc(F)c(CN5CCOCC5)c(F)c4)c3n2)cc1CN1CCNCC1` [Example 332, [7-(3,5-Difluoro-4-morpholin-4-ylmethyl-phenyl)-7H-pyrrolo[2,3-d]pyrimidin-2-yl]-(4-methyl-3-piperazin-1-ylmethyl-phenyl)-amine] yielded a concentration for half-maximal inhibition (IC50) of 375 nM.

As for `COc1cc(Nc2ncc3ccn(-c4ccc(C(=O)N5CCOCC5)c(F)c4)c3n2)ccc1F` [Example 151, {2-Fluoro-4-[2-(4-fluoro-3-methoxy-phenylamino)-pyrrolo[2,3-d]pyrimidin-7-yl]-phenyl}-morpholin-4-yl-methanone], half-maximal inhibition (IC50) required 228 nM.

The compound `COCc1c(F)cc(-n2ccc3cnc(Nc4ccc(N5CCN(C)CC5)nc4)nc32)cc1F` [Example 446, [7-(3,5-Difluoro-4-methoxymethyl-phenyl)-7H-pyrrolo[2,3-d]pyrimidin-2-yl]-[6-(4-methyl-piperazin-1-yl)-pyridin-3-yl]-amine] registered an IC50 of 50 nM.

Turning to `Cc1ccc(Nc2ncc3ccn(-c4ccc(C(=O)N5CCOCC5)cc4)c3n2)cn1` [Example 238, {4-[2-(6-Methyl-pyridin-3-ylamino)-pyrrolo[2,3-d]pyrimidin-7-yl]-phenyl}-morpholin-4-yl-methanone], the IC50 turned out to be 785 nM.

The compound `Cc1ccc(Nc2ncc3ccn(-c4ccc(C(=O)N5CCN(CCO)CC5)cc4)c3n2)cc1C` [Example 300, {4-[2-(3,4-Dimethyl-phenylamino)-pyrrolo[2,3-d]pyrimidin-7-yl]-phenyl}-[4-(2-hydroxy-ethyl)-piperazin-1-yl]-methanone] displayed an IC50 of 2030 nM.

For `CC(C)Oc1ccc(Nc2ncc3ccn(-c4ccc(C#N)cc4)c3n2)cc1` [Example 96, 4-[2-(4-Isopropoxy-phenylamino)-pyrrolo[2,3-d]pyrimidin-7-yl]-benzonitrile], the IC50 is 26200 nM.

`COCc1ccc(Nc2ncc3ccn(-c4cc(F)c(CN5CCS(=O)(=O)CC5)c(F)c4)c3n2)cc1` [Example 184, {7-[4-(1,1-Dioxido-thiomorpholin-4-ylmethyl)-3,5-difluoro-phenyl]-7H-pyrrolo[2,3-d]pyrimidin-2-yl}-(4-methoxymethyl-phenyl)-amine] registered a half-maximal inhibitory concentration (IC50) of 35 nM.

Regarding `Cn1cc(Nc2ncc3ccn(-c4ccc(CC(=O)N5CCOCC5)cc4)c3n2)cn1` [Example 301, 2-{4-[2-(1-Methyl-1H-pyrazol-4-ylamino)-pyrrolo[2,3-d]pyrimidin-7-yl]-phenyl}-1-morpholin-4-yl-ethanone], the half-inhibitory concentration (IC50) was found to be 50 nM.

In a further assay the test system is JAK2-dependent nuclear translocation of STAT5-GFP in U-2 OS osteosarcoma cells. Briefly: STAT5 nuclear translocation assay (Cellomics), rhEpo stimulated U-2 OS STAT5-GFP cells. The assay is classed as cell-based. The following applies: Homo sapiens, U2OS; STAT5 translocation pathway. Put shortly:
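U-2 OS cells stably expressing STAT5a-GFP and EpoR pre-treated with compound (final 10 μM to 0.003 μM, 0.1% DMSO) for 30 min at 37° C., then stimulated 1 h with 5 U/ml rhEpo. Nuclear-cytoplasmic GFP differential quantified by automated imaging (≥1000 cells/well, Hoechst nuclear mask). IC50 from % translocation normalized to untreated and DMSO-stimulated controls.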
On to `C[C@@H]1CN(c2ccc(Nc3ncc4ccn(-c5ccc(NS(C)(=O)=O)cc5)c4n3)cn2)C[C@H](C)N1` [Example 380, N-(4-{2-[6-(cis-3,5-Dimethyl-piperazin-1-yl)-pyridin-3-ylamino]-pyrrolo[2,3-d]pyrimidin-7-yl}-phenyl)-methanesulfonamide], for which the IC50 came to 46 nM.

With `Cc1ccc(Nc2ncc3ccn(-c4cc(F)c(CN5CCOCC5)c(F)c4)c3n2)cc1CN1CCNCC1` [Example 332, [7-(3,5-Difluoro-4-morpholin-4-ylmethyl-phenyl)-7H-pyrrolo[2,3-d]pyrimidin-2-yl]-(4-methyl-3-piperazin-1-ylmethyl-phenyl)-amine], half-maximal inhibition (IC50) required 73 nM.

`COCc1c(F)cc(-n2ccc3cnc(Nc4ccc(N5CCN(C)CC5)nc4)nc32)cc1F` [Example 446, [7-(3,5-Difluoro-4-methoxymethyl-phenyl)-7H-pyrrolo[2,3-d]pyrimidin-2-yl]-[6-(4-methyl-piperazin-1-yl)-pyridin-3-yl]-amine] returned an IC50 of 1.3 nM.

Compound `Cc1ccc(Nc2ncc3ccn(-c4cc(F)c(CN5CCNC(=O)C5)c(F)c4)c3n2)cc1CN1CCNCC1` [Example 382, 4-{2,6-Difluoro-4-[2-(4-methyl-3-piperazin-1-ylmethyl-phenylamino)-pyrrolo[2,3-d]pyrimidin-7-yl]-benzyl}-piperazin-2-one] showed an IC50 of 121 nM.

The compound `CC1(C)NCCN(c2cc(Nc3ncc4ccn(-c5cc(F)c(CN6CCOCC6)c(F)c5)c4n3)ccn2)C1=O` [Example 503, 1-{4-[7-(3,5-Difluoro-4-morpholin-4-ylmethyl-phenyl)-7H-pyrrolo[2,3-d]pyrimidin-2-ylamino]-pyridin-2-yl}-3,3-dimethyl-piperazin-2-one] had an IC50 of 27.5 nM.

Compound `Fc1cc(-n2ccc3cnc(Nc4ccnc(CN5CCNCC5)c4)nc32)cc(F)c1CN1CCOCC1` [Example 372, [7-(3,5-Difluoro-4-morpholin-4-ylmethyl-phenyl)-7H-pyrrolo[2,3-d]pyrimidin-2-yl]-(2-piperazin-1-ylmethyl-pyridin-4-yl)-amine] came in with an IC50 of 57 nM.

Compound `CN1CCN(c2ccc(Nc3ncc4ccn(-c5cc(F)c(CN6CCS(=O)(=O)CC6)c(F)c5)c4n3)nc2)CC1` [Example 440, {7-[4-(1,1-Dioxido-thiomorpholin-4-ylmethyl)-3,5-difluoro-phenyl]-7H-pyrrolo[2,3-d]pyrimidin-2-yl}-[5-(4-methyl-piperazin-1-yl)-pyridin-2-yl]-amine] yielded an IC50 of 61 nM.
